According to the kinase profiling compilation of Christmann-Franck et al. (2016):

How the values were obtained:
Experiment in all cases: radiometric filter-binding kinase assay, Kinase HotSpot
Conditions in all cases: compound 0.5 µM; ATP 10 µM
ADRBK2 (human) = ADRBK2 (human) (UniProt P35626)
CAMK1G (human) = CAMK1G (human) (UniProt Q96NX5)
CAMK2D (human) = CAMK2D (human) (UniProt Q13557)
CAMK2G (human) = CAMK2G (human) (UniProt Q13555)
CDC42BPA (human) = CDC42BPA (human) (UniProt Q5VT25)
CSNK1G3 (human) = CSNK1G3 (human) (UniProt Q9Y6M4)
DYRK2 (human) = DYRK2 (human) (UniProt Q92630)
EPHA2 (human) = EPHA2 (human) (UniProt P29317)
EPHA3 (human) = EPHA3 (human) (UniProt P29320)
EPHB1 (human) = EPHB1 (human) (UniProt P54762)
FGFR2 (human) = FGFR2 (human) (UniProt P21802)
FGFR2 (human), sequence (P21802 whole entry, looked up): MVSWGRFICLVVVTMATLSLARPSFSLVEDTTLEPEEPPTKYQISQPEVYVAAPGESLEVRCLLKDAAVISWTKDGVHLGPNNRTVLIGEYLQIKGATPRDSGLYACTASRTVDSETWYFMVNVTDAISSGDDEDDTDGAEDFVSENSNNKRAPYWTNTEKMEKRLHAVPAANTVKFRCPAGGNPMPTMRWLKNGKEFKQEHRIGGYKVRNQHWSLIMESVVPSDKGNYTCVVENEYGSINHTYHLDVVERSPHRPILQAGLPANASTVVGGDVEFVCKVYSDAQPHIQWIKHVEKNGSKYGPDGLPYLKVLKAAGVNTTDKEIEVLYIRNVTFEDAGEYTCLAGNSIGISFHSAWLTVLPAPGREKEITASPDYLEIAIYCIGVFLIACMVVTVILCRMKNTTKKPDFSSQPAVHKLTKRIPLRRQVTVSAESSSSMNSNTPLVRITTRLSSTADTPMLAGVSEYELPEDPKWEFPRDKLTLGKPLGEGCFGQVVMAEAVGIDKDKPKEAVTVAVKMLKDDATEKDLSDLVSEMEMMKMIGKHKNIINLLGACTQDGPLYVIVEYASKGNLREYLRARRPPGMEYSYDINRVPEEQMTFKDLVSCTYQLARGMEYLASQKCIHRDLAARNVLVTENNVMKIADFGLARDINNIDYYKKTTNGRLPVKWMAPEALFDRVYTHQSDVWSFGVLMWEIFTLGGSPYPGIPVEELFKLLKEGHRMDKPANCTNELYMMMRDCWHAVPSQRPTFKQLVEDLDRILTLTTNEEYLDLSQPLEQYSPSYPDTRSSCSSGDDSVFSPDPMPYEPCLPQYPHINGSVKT

GRK5 (human) = GRK5 (human) (UniProt P34947)
HIPK3 (human) = HIPK3 (human) (UniProt Q9H422)
IRAK1 (human) = IRAK1 (human) (UniProt P51617)
IRAK4 (human) = IRAK4 (human) (UniProt Q9NWZ3)
MAPK11 (human) = MAPK11 (human) (UniProt Q15759)
MARK2 (human) = MARK2 (human) (UniProt Q7KZI7)
MELK (human) = MELK (human) (UniProt Q14680)
MLTK (human) = MLTK (human) (UniProt Q9NYL2)
MUSK (human) = MUSK (human) (UniProt O15146)
MUSK (human), sequence (O15146 whole entry, looked up): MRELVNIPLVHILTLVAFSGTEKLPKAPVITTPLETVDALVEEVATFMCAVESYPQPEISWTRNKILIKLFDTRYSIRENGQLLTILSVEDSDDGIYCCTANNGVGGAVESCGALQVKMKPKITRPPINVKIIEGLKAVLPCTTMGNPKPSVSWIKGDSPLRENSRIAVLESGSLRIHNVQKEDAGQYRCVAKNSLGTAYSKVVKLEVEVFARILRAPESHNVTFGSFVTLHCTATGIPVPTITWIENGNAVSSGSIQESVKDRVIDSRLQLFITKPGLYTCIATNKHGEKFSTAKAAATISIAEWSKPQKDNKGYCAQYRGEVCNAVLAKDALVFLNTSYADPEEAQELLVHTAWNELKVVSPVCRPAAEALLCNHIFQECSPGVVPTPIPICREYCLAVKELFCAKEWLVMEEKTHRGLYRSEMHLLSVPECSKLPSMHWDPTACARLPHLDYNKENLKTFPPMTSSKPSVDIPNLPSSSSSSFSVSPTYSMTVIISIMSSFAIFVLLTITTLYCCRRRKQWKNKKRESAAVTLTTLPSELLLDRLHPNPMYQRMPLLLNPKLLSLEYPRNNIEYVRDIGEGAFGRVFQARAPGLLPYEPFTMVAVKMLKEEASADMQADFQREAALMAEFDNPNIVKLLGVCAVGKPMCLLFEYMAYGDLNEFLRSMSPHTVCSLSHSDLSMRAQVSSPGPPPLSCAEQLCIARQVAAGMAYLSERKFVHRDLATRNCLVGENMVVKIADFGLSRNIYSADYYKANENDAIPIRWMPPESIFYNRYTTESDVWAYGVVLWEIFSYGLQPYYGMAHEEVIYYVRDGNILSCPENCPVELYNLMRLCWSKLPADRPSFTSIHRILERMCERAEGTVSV

NEK2 (human) = NEK2 (human) (UniProt P51955)
NEK3 (human) = NEK3 (human) (UniProt P51956)
NEK3 (human), sequence (P51956 whole entry, looked up): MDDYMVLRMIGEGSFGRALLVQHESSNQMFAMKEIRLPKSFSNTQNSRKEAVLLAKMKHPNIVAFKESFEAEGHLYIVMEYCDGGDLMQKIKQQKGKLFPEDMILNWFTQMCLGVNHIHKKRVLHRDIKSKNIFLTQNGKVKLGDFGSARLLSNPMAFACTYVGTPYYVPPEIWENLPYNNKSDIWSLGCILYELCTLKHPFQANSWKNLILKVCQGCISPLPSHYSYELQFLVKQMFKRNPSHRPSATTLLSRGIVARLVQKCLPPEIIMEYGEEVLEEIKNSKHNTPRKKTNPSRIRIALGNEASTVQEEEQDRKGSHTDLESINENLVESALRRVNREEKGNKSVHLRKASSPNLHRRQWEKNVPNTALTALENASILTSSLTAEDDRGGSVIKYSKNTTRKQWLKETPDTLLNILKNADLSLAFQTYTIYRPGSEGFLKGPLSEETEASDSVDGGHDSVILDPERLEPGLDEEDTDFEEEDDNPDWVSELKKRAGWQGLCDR

NEK9 (human) = NEK9 (human) (UniProt Q8TD19)
NUAK1 (human) = NUAK1 (human) (UniProt O60285)
NUAK2 (human) = NUAK2 (human) (UniProt Q9H093)
PAK4 (human) = PAK4 (human) (UniProt O96013)
PAK7 (human) = PAK7 (human) (UniProt Q9P286)
PASK (human) = PASK (human) (UniProt Q96RG2)
PDGFRA (human) = PDGFRA (human) (UniProt P16234)
PDGFRA (human), sequence (P16234 whole entry, looked up): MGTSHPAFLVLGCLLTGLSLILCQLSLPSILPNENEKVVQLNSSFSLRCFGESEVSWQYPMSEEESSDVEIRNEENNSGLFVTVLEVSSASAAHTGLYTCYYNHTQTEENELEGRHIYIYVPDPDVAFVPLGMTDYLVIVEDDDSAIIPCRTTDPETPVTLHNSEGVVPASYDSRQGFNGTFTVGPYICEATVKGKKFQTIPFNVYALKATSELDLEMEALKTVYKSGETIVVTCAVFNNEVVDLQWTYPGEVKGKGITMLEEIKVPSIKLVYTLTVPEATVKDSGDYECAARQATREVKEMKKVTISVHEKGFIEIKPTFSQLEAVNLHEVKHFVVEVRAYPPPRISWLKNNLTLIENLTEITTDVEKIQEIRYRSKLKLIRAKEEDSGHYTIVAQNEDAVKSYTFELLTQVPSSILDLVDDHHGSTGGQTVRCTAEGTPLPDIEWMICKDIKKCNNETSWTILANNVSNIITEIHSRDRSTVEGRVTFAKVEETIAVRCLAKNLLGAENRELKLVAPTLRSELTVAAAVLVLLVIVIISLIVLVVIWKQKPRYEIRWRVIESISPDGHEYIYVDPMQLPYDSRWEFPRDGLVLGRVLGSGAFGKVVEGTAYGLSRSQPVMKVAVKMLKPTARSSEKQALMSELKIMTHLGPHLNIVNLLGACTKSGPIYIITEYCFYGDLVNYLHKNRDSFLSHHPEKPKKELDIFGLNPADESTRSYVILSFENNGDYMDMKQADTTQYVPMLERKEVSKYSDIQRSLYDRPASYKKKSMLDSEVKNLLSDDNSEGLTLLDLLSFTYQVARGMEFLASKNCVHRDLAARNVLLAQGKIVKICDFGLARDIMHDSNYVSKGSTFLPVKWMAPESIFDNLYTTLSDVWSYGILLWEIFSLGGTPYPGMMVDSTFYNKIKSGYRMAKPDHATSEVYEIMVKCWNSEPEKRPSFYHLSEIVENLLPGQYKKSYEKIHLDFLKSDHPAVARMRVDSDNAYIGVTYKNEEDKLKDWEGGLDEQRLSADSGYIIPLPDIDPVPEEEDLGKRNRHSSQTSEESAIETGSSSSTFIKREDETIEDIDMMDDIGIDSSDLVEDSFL

PNCK (human) = PNCK (human) (UniProt Q6P2M8)
PRKD2 (human) = PRKD2 (human) (UniProt Q9BZL6)
PRKD2 (human), sequence (Q9BZL6 whole entry, looked up): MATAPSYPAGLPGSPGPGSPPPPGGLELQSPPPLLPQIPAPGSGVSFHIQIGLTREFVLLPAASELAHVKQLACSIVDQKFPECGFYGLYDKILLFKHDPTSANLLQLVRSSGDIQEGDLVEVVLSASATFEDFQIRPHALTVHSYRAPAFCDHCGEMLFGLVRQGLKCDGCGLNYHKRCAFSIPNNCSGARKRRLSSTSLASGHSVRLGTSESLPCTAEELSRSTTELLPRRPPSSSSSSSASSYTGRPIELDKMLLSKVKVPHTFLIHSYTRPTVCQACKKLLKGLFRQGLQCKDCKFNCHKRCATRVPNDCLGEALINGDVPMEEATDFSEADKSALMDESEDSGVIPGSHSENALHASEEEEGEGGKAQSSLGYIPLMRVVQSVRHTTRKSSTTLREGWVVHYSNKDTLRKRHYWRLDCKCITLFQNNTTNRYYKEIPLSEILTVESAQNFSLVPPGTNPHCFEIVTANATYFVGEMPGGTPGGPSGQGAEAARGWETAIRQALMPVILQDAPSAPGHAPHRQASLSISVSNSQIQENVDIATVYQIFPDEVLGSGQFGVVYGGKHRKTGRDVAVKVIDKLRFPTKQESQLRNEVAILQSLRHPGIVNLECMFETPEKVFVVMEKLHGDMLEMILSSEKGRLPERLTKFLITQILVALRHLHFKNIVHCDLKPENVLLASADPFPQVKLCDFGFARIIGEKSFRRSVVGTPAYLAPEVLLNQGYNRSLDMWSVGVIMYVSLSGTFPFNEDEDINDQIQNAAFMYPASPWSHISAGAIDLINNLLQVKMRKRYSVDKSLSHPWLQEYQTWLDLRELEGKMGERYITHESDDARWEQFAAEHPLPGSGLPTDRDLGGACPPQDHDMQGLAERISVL

ROCK2 (human) = ROCK2 (human) (UniProt O75116)
ROS1 (human) = ROS1 (human) (UniProt P08922)
RPS6KA1 KD1 KD2 (human) = RPS6KA1 KD1 KD2 (human) (UniProt Q15418)
RPS6KA3 KD1 KD2 (human) = RPS6KA3 KD1 KD2 (human) (UniProt P51812)
RPS6KA6 KD1 KD2 (human) = RPS6KA6 KD1 KD2 (human) (UniProt Q9UK32)
SRMS (human) = SRMS (human) (UniProt Q9H3Y6)
STK17A (human) = STK17A (human) (UniProt Q9UEE5)
STK39 (human) = STK39 (human) (UniProt Q9UEW8)
TAOK3 (human) = TAOK3 (human) (UniProt Q9H2K8)
VRK1 (human) = VRK1 (human) (UniProt Q99986)
ZAP70 (human) = ZAP70 (human) (UniProt P43403)
ZAP70 (human), sequence (P43403 whole entry, looked up): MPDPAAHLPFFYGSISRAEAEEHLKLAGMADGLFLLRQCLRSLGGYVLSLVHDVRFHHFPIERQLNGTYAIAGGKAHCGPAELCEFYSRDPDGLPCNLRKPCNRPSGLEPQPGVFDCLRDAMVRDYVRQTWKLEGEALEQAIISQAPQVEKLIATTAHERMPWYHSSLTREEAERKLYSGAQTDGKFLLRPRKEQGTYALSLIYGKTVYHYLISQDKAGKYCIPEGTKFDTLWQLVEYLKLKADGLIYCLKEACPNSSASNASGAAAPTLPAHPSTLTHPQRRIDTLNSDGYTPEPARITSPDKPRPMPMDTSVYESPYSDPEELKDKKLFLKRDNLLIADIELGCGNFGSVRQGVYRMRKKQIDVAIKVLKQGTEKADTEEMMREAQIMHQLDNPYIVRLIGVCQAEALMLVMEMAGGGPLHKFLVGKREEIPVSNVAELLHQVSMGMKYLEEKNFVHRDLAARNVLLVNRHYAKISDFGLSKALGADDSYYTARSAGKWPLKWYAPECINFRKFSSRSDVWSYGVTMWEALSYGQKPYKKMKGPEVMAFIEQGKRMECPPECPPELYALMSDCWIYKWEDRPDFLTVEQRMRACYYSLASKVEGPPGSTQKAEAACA

Q: Which results are given for `COc1cc2c(cc1OC)-c1[nH]nc(Nc3cccc(F)c3)c1C2`?
A: residual activity (ADRBK2 (human)): 98.4%; residual activity (CAMK1G (human)): 101%; residual activity (CAMK2D (human)): 103%; residual activity (CAMK2G (human)): 101%; residual activity (CDC42BPA (human)): 119%; residual activity (CSNK1G3 (human)): 95%; residual activity (DYRK2 (human)): 95.3%; residual activity (EPHA2 (human)): 93.8%; residual activity (EPHA3 (human)): 94.5%; residual activity (EPHB1 (human)): 100%; residual activity (FGFR2 (human)): 100%; residual activity (GRK5 (human)): 95.8%; residual activity (HIPK3 (human)): 100%; residual activity (IRAK1 (human)): 97.8%; residual activity (IRAK4 (human)): 70%; residual activity (MAPK11 (human)): 83%; residual activity (MARK2 (human)): 77.2%; residual activity (MELK (human)): 72.1%; residual activity (MLTK (human)): 44.7%; residual activity (MUSK (human)): 82.7%; residual activity (NEK2 (human)): 93%; residual activity (NEK3 (human)): 97.1%; residual activity (NEK9 (human)): 102%; residual activity (NUAK1 (human)): 88.5%; residual activity (NUAK2 (human)): 94.6%; residual activity (PAK4 (human)): 89.9%; residual activity (PAK7 (human)): 93.2%; residual activity (PASK (human)): 93.3%; residual activity (PDGFRA (human)): 33.4%; residual activity (PNCK (human)): 98%; residual activity (PRKD2 (human)): 96.3%; residual activity (ROCK2 (human)): 95.2%; residual activity (ROS1 (human)): 97.5%; residual activity (RPS6KA1 KD1 KD2 (human)): 84.1%; residual activity (RPS6KA3 KD1 KD2 (human)): 94.7%; residual activity (RPS6KA6 KD1 KD2 (human)): 93.6%; residual activity (SRMS (human)): 99.9%; residual activity (STK17A (human)): 87%; residual activity (STK39 (human)): 105%; residual activity (TAOK3 (human)): 91.5%; residual activity (VRK1 (human)): 89.9%; residual activity (ZAP70 (human)): 95.3%

Q: What does the source list for `O=C1NC(=O)c2cc(Nc3ccc(F)cc3)c(Nc3ccc(F)cc3)cc21`?
A: residual activity (ADRBK2 (human)): 104%; residual activity (CAMK1G (human)): 106%; residual activity (CAMK2D (human)): 97.9%; residual activity (CAMK2G (human)): 101%; residual activity (CDC42BPA (human)): 92.3%; residual activity (CSNK1G3 (human)): 90.7%; residual activity (DYRK2 (human)): 89.1%; residual activity (EPHA2 (human)): 94.3%; residual activity (EPHA3 (human)): 96.6%; residual activity (EPHB1 (human)): 103%; residual activity (FGFR2 (human)): 102%; residual activity (GRK5 (human)): 101%; residual activity (HIPK3 (human)): 95.3%; residual activity (IRAK1 (human)): 88.5%; residual activity (IRAK4 (human)): 98.1%; residual activity (MAPK11 (human)): 94.6%; residual activity (MARK2 (human)): 98.2%; residual activity (MELK (human)): 92%; residual activity (MLTK (human)): 94.5%; residual activity (MUSK (human)): 90.2%; residual activity (NEK2 (human)): 96.3%; residual activity (NEK3 (human)): 99.1%; residual activity (NEK9 (human)): 107%; residual activity (NUAK1 (human)): 94%; residual activity (NUAK2 (human)): 112%; residual activity (PAK4 (human)): 95.1%; residual activity (PAK7 (human)): 96.4%; residual activity (PASK (human)): 91.3%; residual activity (PDGFRA (human)): 101%; residual activity (PNCK (human)): 97.3%; residual activity (PRKD2 (human)): 86.8%; residual activity (ROCK2 (human)): 92.8%; residual activity (ROS1 (human)): 92%; residual activity (RPS6KA1 KD1 KD2 (human)): 97.7%; residual activity (RPS6KA3 KD1 KD2 (human)): 118%; residual activity (RPS6KA6 KD1 KD2 (human)): 97.4%; residual activity (SRMS (human)): 95.5%; residual activity (STK17A (human)): 104%; residual activity (STK39 (human)): 89.2%; residual activity (TAOK3 (human)): 89.9%; residual activity (VRK1 (human)): 93%; residual activity (ZAP70 (human)): 78.8%

Q: Which residual activity (ADRBK2 (human)) does the source give for `O=C1NC(=O)c2c1c1c3ccccc3[nH]c1c1[nH]c3cc(Br)ccc3c21` here?
A: The residual activity was 95.2%.

Q: What about the residual activity (CAMK1G (human)) of the same compound?
A: The residual activity was 94.5%.

Q: And the residual activity (CAMK2D (human))?
A: Its residual activity is 63.1%.

Q: What about the residual activity (CAMK2G (human)) of the same compound?
A: The residual activity was 99.5%.

Q: What about the residual activity (CDC42BPA (human)) of the same compound?
A: The residual activity was 97.5%.

Q: What about the residual activity (CSNK1G3 (human)) of the same compound?
A: The residual activity was 94.6%.

Q: And the residual activity (DYRK2 (human))?
A: The residual activity was 70.5%.

Q: What about the residual activity (EPHA2 (human)) of the same compound?
A: The residual activity was 99.2%.

Q: And the residual activity (EPHA3 (human))?
A: Its residual activity is 100%.

Q: And the residual activity (EPHB1 (human))?
A: Its residual activity is 95.5%.

Q: What about the residual activity (FGFR2 (human)) of the same compound?
A: Its residual activity is 98.4%.

Q: What about the residual activity (GRK5 (human)) of the same compound?
A: The residual activity was 97%.

Q: What about the residual activity (HIPK3 (human)) of the same compound?
A: Its residual activity is 93.3%.

Q: And the residual activity (IRAK1 (human))?
A: Its residual activity is 81.8%.

Q: What about the residual activity (IRAK4 (human)) of the same compound?
A: The residual activity was 76.2%.

Q: And the residual activity (MAPK11 (human))?
A: Its residual activity is 93.6%.

Q: What about the residual activity (MARK2 (human)) of the same compound?
A: Its residual activity is 40.4%.

Q: What about the residual activity (MELK (human)) of the same compound?
A: Its residual activity is 46.6%.

Q: And the residual activity (MLTK (human))?
A: The residual activity was 88.8%.

Q: And the residual activity (MUSK (human))?
A: Its residual activity is 88.4%.

Q: What about the residual activity (NEK2 (human)) of the same compound?
A: Its residual activity is 92%.

Q: What about the residual activity (NEK3 (human)) of the same compound?
A: Its residual activity is 88.3%.

Q: What about the residual activity (NEK9 (human)) of the same compound?
A: The residual activity was 83.6%.

Q: What about the residual activity (NUAK1 (human)) of the same compound?
A: The residual activity was 14.3%.

Q: What about the residual activity (NUAK2 (human)) of the same compound?
A: The residual activity was 84.5%.

Q: And the residual activity (PAK4 (human))?
A: The residual activity was 96.4%.

Q: And the residual activity (PAK7 (human))?
A: The residual activity was 96.7%.

Q: What about the residual activity (PASK (human)) of the same compound?
A: Its residual activity is 86.3%.

Q: What about the residual activity (PDGFRA (human)) of the same compound?
A: The residual activity was 97.6%.

Q: And the residual activity (PNCK (human))?
A: Its residual activity is 99.4%.

Q: What about the residual activity (PRKD2 (human)) of the same compound?
A: The residual activity was 45.9%.

Q: What about the residual activity (ROCK2 (human)) of the same compound?
A: The residual activity was 72.7%.

Q: What about the residual activity (ROS1 (human)) of the same compound?
A: The residual activity was 74.4%.

Q: And the residual activity (RPS6KA1 KD1 KD2 (human))?
A: The residual activity was 58.4%.

Q: What about the residual activity (RPS6KA3 KD1 KD2 (human)) of the same compound?
A: The residual activity was 46.3%.

Q: And the residual activity (RPS6KA6 KD1 KD2 (human))?
A: The residual activity was 32.4%.

Q: And the residual activity (SRMS (human))?
A: Its residual activity is 91.5%.

Q: And the residual activity (STK17A (human))?
A: Its residual activity is 29.5%.

Q: What about the residual activity (STK39 (human)) of the same compound?
A: Its residual activity is 90.7%.

Q: What about the residual activity (TAOK3 (human)) of the same compound?
A: The residual activity was 82.3%.

Q: What about the residual activity (VRK1 (human)) of the same compound?
A: The residual activity was 92.3%.

Q: And the residual activity (ZAP70 (human))?
A: Its residual activity is 104%.
